Measured values published in patent publication US11219212B2, “Herbicidal composition comprising cinmethylin and imazamox” (BASF Agro B.V., priority 2015, dated 2022).

Tests used:
Type in all cases: in vivo
[1] = test system: Anthemis arvensis; experiment: Greenhouse preemergence herbicidal activity; conditions: ANTAR
Procedure: (§1) The test plants have been seeded, separately for each species, in plastic containers in sandy loamy soil containing 5% of organic matter.
(§2) The containers were irrigated gently to promote germination and growth and subsequently covered with transparent plastic hoods until the plants had rooted.
(§3) The plants have been cultivated due to their individual requirements at 10-25° C. and 20-35° C. The plants were irrigated due to their necessity.
(§4) The racemic mixture (±)-2-exo-(2-M ethylbenzyloxy)-1-methyl-4-isopropyl-7-oxabicyclo[2.2.1]heptane was used as herbicide A and formulated as emulsifiable concentrates with an active ingredient concentration of 50 g/l, 100 g/I or 750 g/I respectively.
(§5) Imazamox (herbicide B.1) was used as a water dispersible granule (70% WG).
(§6) In the following experiments, the herbicidal activity for the individual herbicidal compositions (solo and mixture applications) was assessed 20 days after treatment (DAT).
(§7) The evaluation for the damage on undesired weeds caused by the chemical compositions was carried out using a scale from 0 to 100%, compared to the untreated control plants. Here, 0 means no damage and 100 means complete destruction of the plants.
(§8) E=X+Y−(X·Y/100) where X=effect in percent using herbicide A at an application rate a; • Y=effect in percent using herbicide B at application rate b; • E=expected effect (in %) of herbicide A+herbicide B at application rates a+b.

[2] = test system: Geranium dissectum; experiment: Greenhouse preemergence herbicidal activity; conditions: GERDI, 20 DAT
Procedure: as §1, §2, §3, §4, §5, §6, §7, §8

[3] = test system: Avena fatua; experiment: Greenhouse preemergence herbicidal activity; conditions: AVEFA
Procedure: as §1, §2, §3, §4, §5, §6, §7, §8

[4] = test system: Amaranthus retroflexus; experiment: Greenhouse preemergence herbicidal activity; conditions: AMARE
Procedure: as §1, §2, §3, §4, §5, §6, §7, §8

[5] = test system: Setaria viridis; experiment: Greenhouse preemergence herbicidal activity; conditions: SETVI
Procedure: as §1, §2, §3, §4, §5, §6, §7, §8

[6] = test system: Stellaria media; experiment: Greenhouse preemergence herbicidal activity; conditions: STEME
Procedure: as §1, §2, §3, §4, §5, §6, §7, §8

[7] = test system: Lolium multiflorum; experiment: Greenhouse preemergence herbicidal activity; conditions: LOLMU
Procedure: as §1, §2, §3, §4, §5, §6, §7, §8

[8] = test system: Echinochloa crus-galli; experiment: Greenhouse preemergence herbicidal activity; conditions: ECHCG, 20 DAT
Procedure: as §1, §2, §3, §4, §5, §6, §7, §8

[9] = test system: Abutilon theophrasti; experiment: Greenhouse preemergence herbicidal activity; conditions: ABUTH, 20 DAT
Procedure: as §1, §2, §3, §4, §5, §6, §7, §8

[10] = test system: Polygonum convolvulus; experiment: Greenhouse preemergence herbicidal activity; conditions: POLCO, 20 DAT
Procedure: as §1, §2, §3, §4, §5, §6, §7, §8

[11] = test system: Sorghum halepense; experiment: Greenhouse preemergence herbicidal activity; conditions: SORHA, 20 DAT
Procedure: as §1, §2, §3, §4, §5, §6, §7, §8

[12] = test system: Galium aparine; experiment: Greenhouse preemergence herbicidal activity; conditions: GALAP, 20 DAT
Procedure: as §1, §2, §3, §4, §5, §6, §7, §8

[13] = test system: Chenopodium album; experiment: Greenhouse preemergence herbicidal activity; conditions: CHEAL, 20 DAT
Procedure: as §1, §2, §3, §4, §5, §6, §7, §8

[14] = test system: Anthemis arvensis; experiment: Greenhouse postemergence herbicidal activity; conditions: ANTAR, 20 DAT
Procedure: as §1
(§9) For the post emergence treatment, the plants were first grown to the 2 leaf station (GS 12). Here, the herbicidal compositions were suspended or emulsified in water as distribution medium and sprayed using finely distributing nozzles.
as §3, §4, §5, §6, §7, §8

[15] = test system: Avena fatua; experiment: Greenhouse postemergence herbicidal activity; conditions: AVEFA, 20 DAT
Procedure: as §1, §9, §3, §4, §5, §6, §7, §8

[16] = test system: Setaria viridis; experiment: Greenhouse postemergence herbicidal activity; conditions: SETVI
Procedure: as §1, §9, §3, §4, §5, §6, §7, §8

[17] = test system: Polygonum convolvulus; experiment: Greenhouse postemergence herbicidal activity; conditions: POLCO
Procedure: as §1, §9, §3, §4, §5, §6, §7, §8

[18] = test system: Sorghum halepense; experiment: Greenhouse postemergence herbicidal activity; conditions: SORHA, 20 DAT
Procedure: as §1, §9, §3, §4, §5, §6, §7, §8

[19] = test system: Chenopodium album; experiment: Greenhouse postemergence herbicidal activity; conditions: CHEAL
Procedure: as §1, §9, §3, §4, §5, §6, §7, §8

[20] = imazamox solo 4.4 g ai/ha, 20 DAT
[21] = imazamox solo 8.8 g ai/ha, 20 DAT
[22] = imazamox solo 17.5 g ai/ha, 20 DAT
[23] = imazamox solo 35 g ai/ha, 20 DAT
[24] = imazamox solo 35 g ai/ha, 20 DAT (line of 200 + 35)
[25] = imazamox solo 8.8 g ai/ha, 20 DAT (line of 50 + 8.8)
[26] = imazamox solo 17.5 g ai/ha, 20 DAT (line of 100 + 17.5)
[27] = imazamox solo 4.4 g ai/ha, 20 DAT (line of 25 + 4.4)
[28] = imazamox solo 4.4 g ai/ha, 20 DAT (line of 43.8 + 4.4)
[29] = herbicide A solo 50 g ai/ha, 20 DAT
[30] = herbicide A solo 62.5 g ai/ha, 20 DAT
[31] = herbicide A solo 150 g ai/ha, 20 DAT
[32] = herbicide A solo 200 g ai/ha, 20 DAT
[33] = herbicide A solo 300 g ai/ha, 20 DAT
[34] = herbicide A solo 75 g ai/ha, 20 DAT
[35] = herbicide A solo 100 g ai/ha, 20 DAT
[36] = herbicide A solo 250 g ai/ha, 20 DAT
[37] = herbicide A solo 25 g ai/ha, 20 DAT
[38] = herbicide A solo 37.5 g ai/ha, 20 DAT
[39] = herbicide A solo 125 g ai/ha, 20 DAT
[40] = herbicide A solo 43.8 g ai/ha, 20 DAT

`COCc1cnc(C2=NC(C)(C(C)C)C(=O)N2)c(C(=O)O)c1` (racemic) [imazamox, 2-[(RS)-4-isopropyl-4-methyl-5-oxo-2-imidazolin-2-yl]-5-methoxymethylnicotinic acid] was tested. Which herbicidal activity [1, 20] did it give?
The herbicidal activity was 0%.

What about the herbicidal activity [1, 21] of the same compound?
The herbicidal activity was 0%.

And the herbicidal activity [1, 22]?
Its herbicidal activity is 20%.

And the herbicidal activity [1, 23]?
Its herbicidal activity is 65%.

And the herbicidal activity [1, 24]?
Its herbicidal activity is 65%.

And the herbicidal activity ([2]; imazamox solo 8.8 g ai/ha)?
Its herbicidal activity is 0%.

What about the herbicidal activity [3, 21] of the same compound?
Its herbicidal activity is 20%.

And the herbicidal activity [3, 25]?
The herbicidal activity was 20%.

What about the herbicidal activity [3, 22] of the same compound?
Its herbicidal activity is 65%.

And the herbicidal activity [3, 26]?
The herbicidal activity was 65%.

And the herbicidal activity [4, 20]?
Its herbicidal activity is 75%.

What about the herbicidal activity [4, 27] of the same compound?
Its herbicidal activity is 75%.

What about the herbicidal activity [4, 21] of the same compound?
The herbicidal activity was 90%.

What about the herbicidal activity [4, 22] of the same compound?
The herbicidal activity was 95%.

What about the herbicidal activity [4, 26] of the same compound?
The herbicidal activity was 95%.

What about the herbicidal activity [4, 23] of the same compound?
Its herbicidal activity is 95%.

What about the herbicidal activity [4, 24] of the same compound?
The herbicidal activity was 95%.

What about the herbicidal activity [5, 27] of the same compound?
The herbicidal activity was 20%.

What about the herbicidal activity ([5]; imazamox solo 4.4 g ai/ha, 20 DAT (line of 62.5 + 4.4)) of the same compound?
Its herbicidal activity is 60%.

What about the herbicidal activity [5, 21] of the same compound?
The herbicidal activity was 65%.

What about the herbicidal activity [6, 21] of the same compound?
The herbicidal activity was 80%.

What about the herbicidal activity [6, 25] of the same compound?
The herbicidal activity was 80%.

What about the herbicidal activity [6, 22] of the same compound?
The herbicidal activity was 95%.

What about the herbicidal activity [7, 20] of the same compound?
Its herbicidal activity is 0%.

And the herbicidal activity [7, 27]?
The herbicidal activity was 0%.

And the herbicidal activity [7, 21]?
The herbicidal activity was 70%.

And the herbicidal activity ([8]; imazamox solo 4.4 g ai/ha)?
The herbicidal activity was 30%.

And the herbicidal activity ([8]; imazamox solo 8.8 g ai/ha)?
The herbicidal activity was 40%.

What about the herbicidal activity ([9]; imazamox solo 17.5 g ai/ha) of the same compound?
The herbicidal activity was 70%.

And the herbicidal activity ([9]; imazamox solo 35 g ai/ha)?
The herbicidal activity was 75%.

What about the herbicidal activity ([10]; imazamox solo 8.8 g ai/ha) of the same compound?
The herbicidal activity was 25%.

And the herbicidal activity ([11]; imazamox solo 4.4 g ai/ha)?
Its herbicidal activity is 10%.

What about the herbicidal activity ([12]; imazamox solo 4.4 g ai/ha) of the same compound?
The herbicidal activity was 0%.

What about the herbicidal activity ([12]; imazamox solo 35 g ai/ha) of the same compound?
The herbicidal activity was 75%.

And the herbicidal activity ([13]; imazamox solo 4.4 g ai/ha)?
Its herbicidal activity is 0%.

And the herbicidal activity ([14]; imazamox solo 35 g ai/ha)?
Its herbicidal activity is 98%.

What about the herbicidal activity ([15]; imazamox solo 4.4 g ai/ha) of the same compound?
Its herbicidal activity is 70%.

And the herbicidal activity [16, 20]?
Its herbicidal activity is 95%.

And the herbicidal activity [16, 28]?
Its herbicidal activity is 95%.

And the herbicidal activity [17, 20]?
The herbicidal activity was 90%.

What about the herbicidal activity [17, 22] of the same compound?
Its herbicidal activity is 95%.

And the herbicidal activity ([17]; imazamox solo 17.5 g ai/ha, 20 DAT (line of 175 + 17.5))?
Its herbicidal activity is 95%.

What about the herbicidal activity [17, 23] of the same compound?
Its herbicidal activity is 95%.

What about the herbicidal activity ([18]; imazamox solo 4.4 g ai/ha) of the same compound?
The herbicidal activity was 90%.

What about the herbicidal activity ([18]; imazamox solo 17.5 g ai/ha) of the same compound?
The herbicidal activity was 95%.

And the herbicidal activity ([18]; imazamox solo 35 g ai/ha)?
The herbicidal activity was 98%.

And the herbicidal activity [19, 20]?
Its herbicidal activity is 90%.

What about the herbicidal activity [19, 28] of the same compound?
Its herbicidal activity is 90%.

What about the herbicidal activity [19, 21] of the same compound?
Its herbicidal activity is 95%.

What does the source list for “(±)-2-exo-(2-Methylbenzyloxy)-1-methyl-4-isopropyl-7-oxabicyclo[2.2.1]heptane [herbicide A]”?
herbicidal activity [1, 29]: 0%; herbicidal activity [1, 30]: 0%; herbicidal activity [1, 31]: 0%; herbicidal activity [1, 32]: 0%; herbicidal activity [1, 33]: 0%; herbicidal activity ([2]; herbicide A solo 125 g ai/ha): 70%; herbicidal activity [3, 29]: 0%; herbicidal activity [3, 34]: 20%; herbicidal activity [3, 35]: 20%; herbicidal activity [3, 36]: 65%; herbicidal activity [4, 37]: 0%; herbicidal activity [4, 38]: 0%; herbicidal activity [4, 34]: 0%; herbicidal activity [4, 35]: 0%; herbicidal activity [4, 31]: 0%; herbicidal activity [4, 32]: 0%; herbicidal activity [4, 33]: 0%; herbicidal activity [5, 37]: 75%; herbicidal activity [5, 30]: 98%; herbicidal activity [5, 34]: 98%; herbicidal activity [6, 29]: 20%; herbicidal activity [6, 34]: 20%; herbicidal activity [6, 31]: 30%; herbicidal activity [7, 37]: 50%; herbicidal activity [7, 38]: 60%; herbicidal activity [7, 39]: 90%; herbicidal activity ([8]; herbicide A solo 62.5 g ai/ha): 98%; herbicidal activity ([8]; herbicide A solo 125 g ai/ha): 98%; herbicidal activity ([9]; herbicide A solo 100 g ai/ha): 0%; herbicidal activity ([9]; herbicide A solo 200 g ai/ha): 0%; herbicidal activity ([10]; herbicide A solo 125 g ai/ha): 0%; herbicidal activity ([11]; herbicide A solo 62.5 g ai/ha): 80%; herbicidal activity ([12]; herbicide A solo 25 g ai/ha): 0%; herbicidal activity ([12]; herbicide A solo 200 g ai/ha): 30%; herbicidal activity ([13]; herbicide A solo 37.5 g ai/ha): 20%; herbicidal activity ([14]; herbicide A solo 500 g ai/ha): 65%; herbicidal activity ([15]; herbicide A solo 43.8 g ai/ha): 25%; herbicidal activity [16, 40]: 75%; herbicidal activity [16, 30]: 85%; herbicidal activity [17, 30]: 25%; herbicidal activity ([17]; herbicide A solo 175 g ai/ha, 20 DAT): 50%; herbicidal activity [17, 36]: 40%; herbicidal activity ([17]; herbicide A solo 350 g ai/ha, 20 DAT): 50%; herbicidal activity ([18]; herbicide A solo 62.5 g ai/ha): 40%; herbicidal activity ([18]; herbicide A solo 175 g ai/ha): 50%; herbicidal activity ([18]; herbicide A solo 350 g ai/ha): 70%; herbicidal activity [19, 40]: 60%; herbicidal activity [19, 30]: 30%; herbicidal activity [19, 39]: 50%
